Measured values taken from paper PMC5828360, “Identification and characterization of highly versatile peptide-vectors that bind non-competitively to the low-density lipoprotein receptor for in vivo targeting and delivery of small molecules and protein cargos” (PLoS ONE, 2018).
Where a SMILES comes first, the peptide text is derived from it. The star is where a group is joined. Propionyl = CCC(=O)*

Tests used:
hTfR = target: T1, hTfR (Homo sapiens, UniProt P02786); assay: Image J quantification of co-localization with hTfR-GFP (control); type: cell-based; settings: CHO-hTfR-GFP, 10 μM
T1 construct: Full length coding regions for hLDLR, mLDLR, rLDLR and hTfR were amplified by RT-PCR; expressed in transfected cells

hLDLR = target: T2, hLDLR (Homo sapiens, UniProt P01130); assay: Image J quantification of co-localization with hLDLR-GFP; type: cell-based; settings: CHO-hLDLR-GFP, 10 μM, n = 3
T2 construct: Full length coding regions for hLDLR, mLDLR, rLDLR and hTfR were amplified by RT-PCR; expressed in transfected cells
Description: Cells alone or incubated 1 hr at 37°C with phage or peptide conjugates (10μM for S-Tag, fluorescent or siRNA conjugates and 10nM for Fc conjugates) were washed and subsequently fixed with 4% paraformaldehyde, washed again and incubated for 30 min at room temperature in PBS containing 3% BSA with or without 0.1% triton X-100 (Sigma-Aldrich). Cells were washed with PBS and incubated for 1 hr with primary antibodies directed against the hLDLR (rabbit, 1/100, Acris, Herford, Germany), against M13 bacteriophage (mouse, 1/3000, Sigma-Aldrich), against the S-Tag (goat, 1/250, Abcam) or against the Fc (mouse, 1/100, Jackson ImmunoResearch), followed by 3 washes with PBS and incubation with Alexa fluor 488, 594 or 647 anti-rabbit, anti-mouse or anti-goat secondary antibodies (1/800, Invitrogen). Cell nuclei were labeled with Hoechst #33258 (0.5 μg/mL, Invitrogen). […] In some experiments, binding and endocytosis of macromolecular complexes were assessed on live CHO-hLDLR-EGFP cells. […] Following fixation, cell nuclei were labeled with Hoechst#33258. Mounted slides were acquired with a Leica TCS SP2 confocal microscope (Leica Microsystems, Heidelberg, Germany). Images were analyzed using ImageJ software and quantification of co-localization between two markers was performed using the JaCoP plug-in, by calculating Mander’s correlation coefficients from unmodified images.

mLDLR = target: T3, mLDLR (Mus musculus, UniProt P35951); settings: in vivo, iv, 0.5 mg/kg
T3 construct: cells expressing LDLR in the zona fasciculata of WT mice; from tissue; host or cells: adrenal gland of C57Bl/6J mice (WT; ldlr-/- as control)
Description: For immunohistochemistry, transcardiac NaCl 0.9% perfusion was followed by 50 mL of PBS 1X- 4% paraformaldehyde (PFA). Mice organs were then removed and snap frozen in cold isopentane. Cryostat (Leica CM-3050-S) sections (14 μm thick) were stored at −80°C. Organ sections were first permeabilized and blocked for 1 hr at room temperature using a solution of PBS 1X, 0.1% Triton X-100 and 3% Bovine Serum Albumin (BSA). Sections were then incubated overnight at 4°C with anti-Fc-A594 (goat, 1/200, Jackson ImmunoResearch) and anti-mLDLR (goat 1/200, R&D Systems), followed by anti-goat-Alexa 488 (donkey, 1/800, Life Technologies) for 1 hr at room temperature. Nuclei were stained with Hoechst (0.5 μg/mL, Life Technologies). Omission of the primary antibody was used as control and no immunostaining was observed. Sections were mounted using Prolong Gold Antifading reagent (Life Technologies) on Superfrost glass slides. Images were taken and processed using a confocal microscope (LSM 700) and Zen software (Zeiss, Jena, Germany).

T2 sequence (P01130 22-860): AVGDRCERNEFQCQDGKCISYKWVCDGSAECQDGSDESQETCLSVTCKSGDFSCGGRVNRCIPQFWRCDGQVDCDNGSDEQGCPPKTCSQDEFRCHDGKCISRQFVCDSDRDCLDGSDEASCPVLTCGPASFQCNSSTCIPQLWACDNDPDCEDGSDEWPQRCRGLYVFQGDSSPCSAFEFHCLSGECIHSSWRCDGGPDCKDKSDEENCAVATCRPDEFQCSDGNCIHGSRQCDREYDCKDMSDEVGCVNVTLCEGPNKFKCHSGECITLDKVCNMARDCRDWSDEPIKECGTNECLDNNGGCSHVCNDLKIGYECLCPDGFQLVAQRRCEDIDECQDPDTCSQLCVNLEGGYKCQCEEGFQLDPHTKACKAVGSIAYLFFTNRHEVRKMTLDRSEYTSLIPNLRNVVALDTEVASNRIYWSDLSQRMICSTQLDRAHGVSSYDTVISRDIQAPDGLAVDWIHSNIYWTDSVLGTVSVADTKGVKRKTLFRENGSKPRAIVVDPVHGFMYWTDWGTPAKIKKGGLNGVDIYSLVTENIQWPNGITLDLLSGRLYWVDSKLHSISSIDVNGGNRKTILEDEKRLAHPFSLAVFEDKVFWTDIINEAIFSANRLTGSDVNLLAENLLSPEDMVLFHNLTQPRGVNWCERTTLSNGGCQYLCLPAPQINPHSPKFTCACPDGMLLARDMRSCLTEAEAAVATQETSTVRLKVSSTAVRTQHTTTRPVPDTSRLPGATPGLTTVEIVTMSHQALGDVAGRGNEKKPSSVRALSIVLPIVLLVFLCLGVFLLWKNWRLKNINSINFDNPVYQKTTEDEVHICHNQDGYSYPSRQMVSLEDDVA
T1 sequence (P02786 whole entry): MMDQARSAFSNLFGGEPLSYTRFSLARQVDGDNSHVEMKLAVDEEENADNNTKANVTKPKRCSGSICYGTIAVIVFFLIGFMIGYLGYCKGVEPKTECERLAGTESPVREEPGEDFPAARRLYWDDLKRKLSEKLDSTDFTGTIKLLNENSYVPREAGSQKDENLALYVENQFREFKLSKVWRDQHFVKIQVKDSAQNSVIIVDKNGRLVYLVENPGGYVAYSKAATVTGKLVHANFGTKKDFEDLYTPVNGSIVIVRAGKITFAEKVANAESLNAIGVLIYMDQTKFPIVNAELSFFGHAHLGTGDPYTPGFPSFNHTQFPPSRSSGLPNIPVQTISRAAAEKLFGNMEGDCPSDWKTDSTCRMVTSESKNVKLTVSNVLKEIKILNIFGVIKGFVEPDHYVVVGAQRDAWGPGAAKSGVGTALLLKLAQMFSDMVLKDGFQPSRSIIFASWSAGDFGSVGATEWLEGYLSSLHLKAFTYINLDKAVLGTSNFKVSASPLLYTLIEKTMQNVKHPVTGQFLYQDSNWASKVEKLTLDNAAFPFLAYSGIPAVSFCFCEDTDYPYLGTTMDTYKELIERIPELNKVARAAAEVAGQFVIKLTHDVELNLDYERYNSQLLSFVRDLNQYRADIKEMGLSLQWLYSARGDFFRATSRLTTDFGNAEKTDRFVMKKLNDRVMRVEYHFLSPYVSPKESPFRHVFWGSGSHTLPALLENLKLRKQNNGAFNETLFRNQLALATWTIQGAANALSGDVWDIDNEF
T3 sequence (P35951 22-862): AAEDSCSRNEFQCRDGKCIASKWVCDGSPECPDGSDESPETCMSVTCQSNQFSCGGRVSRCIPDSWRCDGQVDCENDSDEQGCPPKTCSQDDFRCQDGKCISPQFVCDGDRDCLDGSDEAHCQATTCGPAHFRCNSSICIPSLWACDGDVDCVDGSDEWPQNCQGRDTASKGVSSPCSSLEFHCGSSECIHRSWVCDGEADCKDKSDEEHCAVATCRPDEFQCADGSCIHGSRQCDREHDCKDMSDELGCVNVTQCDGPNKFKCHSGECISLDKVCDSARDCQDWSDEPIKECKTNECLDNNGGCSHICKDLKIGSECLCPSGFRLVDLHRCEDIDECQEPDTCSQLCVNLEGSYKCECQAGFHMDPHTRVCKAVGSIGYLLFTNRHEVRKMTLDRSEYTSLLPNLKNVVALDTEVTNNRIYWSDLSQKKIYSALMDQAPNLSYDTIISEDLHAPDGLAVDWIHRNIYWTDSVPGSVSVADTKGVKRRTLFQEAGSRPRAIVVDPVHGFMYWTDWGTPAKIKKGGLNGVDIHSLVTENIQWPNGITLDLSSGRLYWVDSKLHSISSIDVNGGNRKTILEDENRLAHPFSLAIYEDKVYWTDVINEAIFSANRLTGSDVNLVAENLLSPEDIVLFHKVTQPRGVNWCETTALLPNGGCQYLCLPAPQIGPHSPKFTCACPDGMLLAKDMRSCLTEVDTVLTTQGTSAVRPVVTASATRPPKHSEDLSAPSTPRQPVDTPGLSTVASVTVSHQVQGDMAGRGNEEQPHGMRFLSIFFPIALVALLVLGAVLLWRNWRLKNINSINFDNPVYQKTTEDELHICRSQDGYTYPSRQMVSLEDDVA

Compound | percentage of hLDLR that co-localized with the S-Tag peptide (hLDLR) | other results
CCC(=O)N[C@@H]1CSSC(C)(C)[C@@H](C(=O)NCC(=O)NCC(=O)NCC(=O)N[C@@H](CCCCN)C(=O)N[C@@H](CCC(=O)O)C(=O)N[C@H](C(=O)N[C@@H](C)C(=O)N[C@@H](C)C(=O)N[C@@H](C)C(=O)N[C@@H](CCCCN)C(=O)N[C@@H](Cc2ccccc2)C(=O)N[C@@H](CCC(=O)O)C(=O)N[C@@H](CCCNC(=N)N)C(=O)N[C@@H](CCC(N)=O)C(=O)N[C@@H](Cc2c[nH]cn2)C(=O)N[C@@H](CCSC)C(=O)N[C@@H](CC(=O)O)C(=O)N[C@@H](CO)C(N)=O)[C@@H](C)O)NC(=O)CNC(=O)[C@H](CCCNC(=N)N)NC(=O)[C@H](CC(C)C)NC(=O)[C@H](CCCNC(=N)N)NC(=O)[C@@H]2CSCN2C(=O)[C@H](CCSC)NC1=O |  | co-localization with hTfR (hTfR): No co-localization
CCC(=O)N[C@@H](CC(C)C)C(=O)N[C@@H](CCCNC(=N)N)C(=O)N[C@@H](CCCCN)C(=O)N[C@@H](CC(C)C)C(=O)N[C@@H](CCCNC(=N)N)C(=O)N[C@@H](CCCCN)C(=O)N[C@@H](CCCNC(=N)N)C(=O)N[C@@H](CC(C)C)C(=O)N[C@@H](CC(C)C)C(=O)N[C@@H](CC(C)C)C(=O)N[C@@H](CCCNC(=N)N)C(=O)N[C@@H](CCCCN)C(=O)N[C@@H](CC(C)C)C(=O)N[C@@H](CCCNC(=N)N)C(=O)N[C@@H](CCCCN)C(=O)N[C@@H](CCCNC(=N)N)C(=O)N[C@@H](CC(C)C)C(=O)N[C@@H](CC(C)C)C(=O)NCC(=O)NCC(=O)NCC(=O)N[C@@H](CCCCN)C(=O)N[C@@H](CCC(=O)O)C(=O)N[C@H](C(=O)N[C@@H](C)C(=O)N[C@@H](C)C(=O)N[C@@H](C)C(=O)N[C@@H](CCCCN)C(=O)N[C@@H](Cc1ccccc1)C(=O)N[C@@H](CCC(=O)O)C(=O)N[C@@H](CCCNC(=N)N)C(=O)N[C@@H](CCC(N)=O)C(=O)N[C@@H](Cc1c[nH]cn1)C(=O)N[C@@H](CCSC)C(=O)N[C@@H](CC(=O)O)C(=O)N[C@@H](CO)C(N)=O)[C@@H](C)O [ApoE2-S-Tag] (Propionyl-LRKLRKRLLLRKLRKRLLGGGKETAAAKFERQHMDS-NH2) | under 10% | 
Propionyl-SVIDALQYKLEGTTRLTRKRGLKLATALSLSNKFVEGSGGGKETAAAKFERQHMDS-NH2 [ApoB-S-Tag] | under 10% | 
hIgG1Fc-SMCC- (Pr- cRPLGRMC-G-(CH2)2-S)2 (disulfide) [(VH4Sc)2-Fc, human IgG1-Fc chemically conjugated to scrambled VH4Sc peptide via sulfo-SMCC] |  | Fc labeling in adrenal gland zona fasciculata (mLDLR): no Fc labeling
